Experimental data as given in article PMC6968633, “Synthesis, antibacterial and anticancer activity, and docking study of aminoguanidines containing an alkynyl moiety” (Journal of Enzyme Inhibition and Medicinal Chemistry, 2019).
Values after ≈ are worked out from the molar mass of the structure shown.

Legend:
[1] = system: Staphyiococcus aureus CMCC 25923; test: Antibacterial MIC, serial dilution; format: cell-based, Staphylococcus aureus; conditions: Staphylococcus aureus, CMCC25923; S. aureus CMCC 25923, 24 h, 37 °C; read-out: MIC
Experimental: (§1) Test bacteria were grown to mid-log phase in Mueller–Hinton broth (MHB) or Tryptone Soya Broth (TSB) and diluted 1000-fold in the same medium. Bacteria (10^5 CFU/mL) were inoculated into MHB or TSB and dispensed at 0.2 ml/well into a 96-well microtiter plate. As positive controls, gatifloxacin, moxifloxacin, norfloxacin, oxacillin, and penicillin were used. […] Bacterial growth was determined by measuring the absorption at 630 nm using a microplate reader. All experiments were carried out three times.
(§2) The evaluation of antibacterial activity of all compounds (3a–3j and 6a–6k) was performed by a serial dilution method to determine the MIC against a panel of pathogens comprising five Gram-positive strains (S. aureus (CMCC(B) 26003 and CMCC 25923), Streptococcus mutans BNCC 336931, Enterococcus faecalis CMCC 29212, and Bacillus subtilis CMCC 63501), four Gram-negative strains (E. coli (CMCC 25922 and CMCC 44568) and P. aeruginosa (CMCC 27853 and CMCC 10104)), as well as three methicillin-resistant clinical isolates (S. aureus ATCC 43300 and ATCC 33591, P. aeruginosa ATCC BAA-2111). The results are described in Tables 1 and 2. Gatifloxacin, moxifloxacin, norfloxacin, oxacillin, and penicillin were used as positive controls.

[2] = system: Bacillus subtilis CMCC 63501; test: Antibacterial MIC, serial dilution; format: cell-based; conditions: Bacillus subtilis, CMCC63501; B. subtilis CMCC 63501, 24 h, 37 °C; read-out: MIC
Experimental: as §1, §2

[3] = system: Enterococcus faecalis CMCC 29212; test: Antibacterial MIC, serial dilution; format: cell-based; conditions: Enterococcus faecalis, CMCC29212; E. faecalis CMCC 29212, 24 h, 37 °C; read-out: MIC
Experimental: as §1, §2

[4] = system: Escherichia coli CMCC 25922; test: Antibacterial MIC, serial dilution; format: cell-based; conditions: Escherichia coli, CMCC25922; E. coli CMCC 25922, 24 h, 37 °C; read-out: MIC
Experimental: as §1, §2

[5] = system: Escherichia coli CMCC 44568; test: Antibacterial MIC, serial dilution; format: cell-based; conditions: Escherichia coli, CMCC44568; E. coli CMCC 44568, 24 h, 37 °C; read-out: MIC
Experimental: as §1, §2

[6] = system: Pseudomonas aeruginosa CMCC 10104; test: Antibacterial MIC, serial dilution; format: cell-based; conditions: Pseudomonas aeruginosa, CMCC10104; P. aeruginosa CMCC 10104, 24 h, 37 °C; read-out: MIC
Experimental: as §1, §2

[7] = system: Pseudomonas aeruginosa CMCC 27853; test: Antibacterial MIC, serial dilution; format: cell-based; conditions: Pseudomonas aeruginosa, CMCC27853; P. aeruginosa CMCC 27853, 24 h, 37 °C; read-out: MIC
Experimental: as §1, §2

[8] = system: Staphylococcus aureus CMCC(B)26003; test: Antibacterial MIC, serial dilution; format: cell-based; conditions: Staphylococcus aureus; S. aureus CMCC(B)26003, 24 h, 37 °C; read-out: MIC
Experimental: as §1, §2

[9] = system: Streptococcus mutans BNCC 336931; test: Antibacterial MIC, serial dilution; format: cell-based; conditions: Streptococcus mutans, BNCC336931; S. mutans BNCC 336931, 24 h, 37 °C; read-out: MIC
Experimental: as §1, §2

[10] = system: Staphylococcus aureus ATCC 33591; test: Antibacterial MIC, multidrug-resistant clinical isolate; format: cell-based; conditions: Staphylococcus aureus, ATCC33591; multidrug-resistant S. aureus ATCC 33591; read-out: MIC
Experimental: as §1, §2

[11] = system: Staphylococcus aureus ATCC 43300; test: as above; format: cell-based; conditions: Staphylococcus aureus, ATCC43300; multidrug-resistant S. aureus ATCC 43300; read-out: MIC
Experimental: as §1, §2

A549 = test: Cytotoxicity, CCK-8 assay; format: cell-based; conditions: Homo sapiens, A549 lung cancer cells, 48 h
Experimental: (§3) A lung cancer cell line (A549), gastric cancer cell line (SGC7901) and human hepatocytes (L02) were used to test the anticancer activity and cytotoxicity of the new compounds. 5-Fluorouracil (5-FU) was used as the positive control against cancer cell lines. The A549, SGC7901 and L02 cells were grown in Dulbecco’s modified Eagle’s medium (DMEM) supplemented with 10% foetal bovine serum (FBS) and antibiotics (100 U/mL penicillin-streptomycin). Cells at 80–90% confluence were split by trypsin (0.25% in PBS; pH 7.4), and the medium was changed at 24 h intervals. The cells were cultured at 37 °C in a 5% CO2 incubator. The cells were passaged three times, then approximately 1 × 10^4 cells were seeded into each well of a 96-well plate and allowed to incubate to allow attachment of the cells to the surface. After 24 h, the medium was replaced with DMEM supplemented with 10% FBS containing various concentrations (0.1, 0.3, 1, 3, 10, and 30 μg/mL) of test compounds. Each concentration was tested in triplicate. After 48 h treatment, 20 µL of CCK-8 solution was added to each well and the optical density measured at 450 nm after 3 h using a microplate reader. The IC50 values were defined as the concentrations inhibiting 50% of cell growth.

SGC7901 = test: Cytotoxicity, CCK-8 assay; format: cell-based; conditions: Homo sapiens, SGC-7901, SGC7901 gastric cancer cells, 48 h
Experimental: as §3

L02 = test: Cytotoxicity, CCK-8 assay, normal cell line; format: cell-based; conditions: L02 normal human hepatocytes, 48 h
Experimental: as §3

[12] = system: Pseudomonas aeruginosa ATCC BAA-2111; test: Antibacterial MIC, multidrug-resistant clinical isolate; format: cell-based; conditions: ATCCBAA2111, multidrug-resistant P. aeruginosa ATCC BAA-2111
Experimental: as §1, §2

SMILES	MIC [1]	MIC [2]	MIC [3]	MIC [4]	MIC [5]	MIC [6]	MIC [7]	MIC [8]	MIC [9]	MIC [10]	MIC [11]	IC50 (A549)	IC50 (SGC7901)	IC50 (L02)	melting point	MIC [12]
N=C(N)NN=Cc1ccc(C#CC#Cc2ccccc2Cl)cc1 [Compound 6e, 2-(4-((2-Chlorophenyl)buta-1,3-diyn-1-yl)benzylidene)hydrazine-1-carboximidamide]	128 µg/mL (≈ 399 µM)	4 µg/mL (≈ 12.5 µM)	0.5 µg/mL (≈ 1.56 µM)	8 µg/mL (≈ 24.9 µM)	64 µg/mL (≈ 200 µM)	4 µg/mL (≈ 12.5 µM)	> 128 µg/mL	0.25 µg/mL (≈ 0.779 µM)	1 µg/mL (≈ 3.12 µM)	0.5 µg/mL (≈ 1.56 µM)	8 µg/mL (≈ 24.9 µM)	3.62 µg/mL (≈ 11.3 µM)	1.48 µg/mL (≈ 4.61 µM)	14.8 µg/mL (≈ 46.1 µM)	207 to 210 °C	–
N=C(N)NN=Cc1ccc(C#Cc2ccccc2Cl)cc1 [Compound 3e, 2-(4-((2-Chlorophenyl)ethynyl)benzylidene)hydrazine-1-carboximidamide]	2 µg/mL (≈ 6.74 µM)	1 µg/mL (≈ 3.37 µM)	0.5 µg/mL (≈ 1.68 µM)	2 µg/mL (≈ 6.74 µM)	8 µg/mL (≈ 27 µM)	4 µg/mL (≈ 13.5 µM)	> 128 µg/mL	0.5 µg/mL (≈ 1.68 µM)	2 µg/mL (≈ 6.74 µM)	0.5 µg/mL (≈ 1.68 µM)	2 µg/mL (≈ 6.74 µM)	4.57 µg/mL (≈ 15.4 µM)	0.45 µg/mL (≈ 1.52 µM)	12.4 µg/mL (≈ 41.9 µM)	200 to 203 °C	–
N=C(N)NN=Cc1ccc(C#Cc2cccc(Cl)c2)cc1 [Compound 3f, 2-(4-((3-Chlorophenyl)ethynyl)benzylidene)hydrazine-1-carboximidamide]	1 µg/mL (≈ 3.37 µM)	0.5 µg/mL (≈ 1.68 µM)	0.5 µg/mL (≈ 1.68 µM)	2 µg/mL (≈ 6.74 µM)	4 µg/mL (≈ 13.5 µM)	2 µg/mL (≈ 6.74 µM)	> 128 µg/mL	1 µg/mL (≈ 3.37 µM)	2 µg/mL (≈ 6.74 µM)	–	–	2.55 µg/mL (≈ 8.59 µM)	0.3 µg/mL (≈ 1.01 µM)	10.2 µg/mL (≈ 34.5 µM)	213 to 214 °C	–
Cc1cccc(C#CC#Cc2ccc(C=NNC(=N)N)cc2)c1 [Compound 6k, 2-(4-(m-Tolylbuta-1,3-diyn-1-yl)benzylidene)hydrazine-1-carboximidamide]	32 µg/mL (≈ 107 µM)	2 µg/mL (≈ 6.66 µM)	0.5 µg/mL (≈ 1.66 µM)	4 µg/mL (≈ 13.3 µM)	128 µg/mL (≈ 426 µM)	4 µg/mL (≈ 13.3 µM)	> 128 µg/mL	1 µg/mL (≈ 3.33 µM)	0.5 µg/mL (≈ 1.66 µM)	–	–	3.58 µg/mL (≈ 11.9 µM)	0.55 µg/mL (≈ 1.83 µM)	14.8 µg/mL (≈ 49.2 µM)	202 to 204 °C	–
N=C(N)NN=Cc1ccc(C#Cc2cccc(Br)c2)cc1 [Compound 3i, 2-(4-((3-Bromophenyl)ethynyl)benzylidene)hydrazine-1-carboximidamide]	2 µg/mL (≈ 5.86 µM)	1 µg/mL (≈ 2.93 µM)	1 µg/mL (≈ 2.93 µM)	2 µg/mL (≈ 5.86 µM)	2 µg/mL (≈ 5.86 µM)	2 µg/mL (≈ 5.86 µM)	> 128 µg/mL	1 µg/mL (≈ 2.93 µM)	1 µg/mL (≈ 2.93 µM)	0.5 µg/mL (≈ 1.47 µM)	2 µg/mL (≈ 5.86 µM)	4.03 µg/mL (≈ 11.8 µM)	1.26 µg/mL (≈ 3.69 µM)	19.6 µg/mL (≈ 57.5 µM)	223 to 225 °C	–
O=c1[nH]cc(F)c(=O)[nH]1 [5-Fluorouracil, reference compound]	–	–	–	–	–	–	–	–	–	–	–	0.88 µg/mL (≈ 6.77 µM)	2.56 µg/mL (≈ 19.7 µM)	8.44 µg/mL (≈ 64.9 µM)	–	–
N=C(N)NN=Cc1ccc(C#Cc2cccc(F)c2)cc1 [Compound 3c, 2-(4-((3-Fluorophenyl)ethynyl)benzylidene)hydrazine-1-carboximidamide]	4 µg/mL (≈ 14.3 µM)	1 µg/mL (≈ 3.57 µM)	1 µg/mL (≈ 3.57 µM)	2 µg/mL (≈ 7.14 µM)	4 µg/mL (≈ 14.3 µM)	2 µg/mL (≈ 7.14 µM)	16 µg/mL (≈ 57.1 µM)	1 µg/mL (≈ 3.57 µM)	2 µg/mL (≈ 7.14 µM)	1 µg/mL (≈ 3.57 µM)	2 µg/mL (≈ 7.14 µM)	–	–	–	223 to 224 °C	–
COc1c(N2CCNC(C)C2)c(F)cc2c(=O)c(C(=O)O)cn(C3CC3)c12 (centres unmarked) [Gatifloxacin, reference compound]	0.125 µg/mL (≈ 0.333 µM)	2 µg/mL (≈ 5.33 µM)	1 µg/mL (≈ 2.66 µM)	0.125 µg/mL (≈ 0.333 µM)	0.125 µg/mL (≈ 0.333 µM)	2 µg/mL (≈ 5.33 µM)	2 µg/mL (≈ 5.33 µM)	0.125 µg/mL (≈ 0.333 µM)	1 µg/mL (≈ 2.66 µM)	0.25 µg/mL (≈ 0.666 µM)	0.5 µg/mL (≈ 1.33 µM)	–	–	–	–	1 µg/mL (≈ 2.66 µM)
N=C(N)NN=Cc1ccc(C#CC#Cc2ccccc2F)cc1 [Compound 6b, 2-(4-((2-Fluorophenyl)buta-1,3-diyn-1-yl)benzylidene)hydrazine-1-carboximidamide]	1 µg/mL (≈ 3.29 µM)	4 µg/mL (≈ 13.1 µM)	0.5 µg/mL (≈ 1.64 µM)	8 µg/mL (≈ 26.3 µM)	128 µg/mL (≈ 421 µM)	128 µg/mL (≈ 421 µM)	> 128 µg/mL	0.25 µg/mL (≈ 0.821 µM)	0.5 µg/mL (≈ 1.64 µM)	1 µg/mL (≈ 3.29 µM)	8 µg/mL (≈ 26.3 µM)	2.22 µg/mL (≈ 7.29 µM)	1.37 µg/mL (≈ 4.5 µM)	18 µg/mL (≈ 59.1 µM)	218 to 220 °C	–
